In the assay the target is aldosterone synthase (CYP11B2) (Macaca fascicularis, UniProt A0A2K5UPL9). Nature of the assay: aldosterone synthase inhibition assay. The settings on record: cynomolgus adrenal gland mitochondria, 2 μM corticosterone, aldosterone quantified by mass spectrometry. Type of assay: biochemical, cynomolgus monkey. The protocol:
The aldosterone synthase inhibition assay employs cynomolgus adrenal gland mitochondria as the source of aldosterone synthase (CYP11B2). Mitochondria are prepared from frozen cynomolgus monkey adrenal glands according to Method A described in by J. D. McGarry et al. (Biochem. J., 1983, 214, 21-28), with a final resuspension in the AT buffer described in R. Yamaguchi et al. (Cell Death and Differentiation, 2007, 14, 616-624), frozen as aliquots in liquid nitrogen and stored at −80° C. until use.
Assays are performed in 96-well format in a final volume of 60 μL/well, containing 100 mM potassium phosphate, pH 7.4, 1% (v/v) DMSO, and additionally, 2 μM of corticosterone and […] of mitochondrial protein. Reactions are started by the addition of NADPH to 1 mM and allowed to proceed for 60-90 minutes at 37° C. Reactions are terminated by the addition of […]. One hundred microliters are then transferred to a glass filter plate and centrifuged at 570×g for 5 minutes and the filtrate is collected. Reaction product aldosterone is quantified by mass spectrometry. To determine the assay blank value (0% activity), NADPH is omitted from some reactions.
Dose dependent inhibition is quantified by the inclusion of compound at various concentrations. Maximum activity (100%) is defined by reactions containing NADPH, but without compound. Activities at each concentration are expressed as a percentage of the maximum activity (y-axis) and plotted against concentration of compound (x-axis) and the concentration corresponding to 50% activity (IC50) determined using the XLFit curve-fitting program using a 4-parameter logistic model.
Sequence of aldosterone synthase (CYP11B2) (A0A2K5UPL9 1-503): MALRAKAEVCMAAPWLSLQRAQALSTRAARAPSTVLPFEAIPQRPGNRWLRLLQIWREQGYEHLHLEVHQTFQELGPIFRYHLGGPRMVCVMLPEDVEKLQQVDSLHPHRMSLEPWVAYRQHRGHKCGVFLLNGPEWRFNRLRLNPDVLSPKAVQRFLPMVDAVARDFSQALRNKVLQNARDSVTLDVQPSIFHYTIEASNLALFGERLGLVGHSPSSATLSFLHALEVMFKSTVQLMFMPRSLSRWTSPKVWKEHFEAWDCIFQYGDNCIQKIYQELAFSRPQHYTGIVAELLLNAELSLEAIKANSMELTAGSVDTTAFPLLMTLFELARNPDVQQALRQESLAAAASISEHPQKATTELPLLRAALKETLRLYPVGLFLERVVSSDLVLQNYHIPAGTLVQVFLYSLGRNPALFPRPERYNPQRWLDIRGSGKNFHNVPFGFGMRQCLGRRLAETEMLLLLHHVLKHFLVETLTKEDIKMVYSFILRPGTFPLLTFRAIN
For orientation: IC50 means the concentration that gives 50% inhibition. Higher therefore signals weaker potency in that assay. On to `O=C1NCCc2cc(-c3cncc4c3COC3(CC3)C4O)ccc21` (single isomer, unassigned) [Compound 84, 6-[4-hydroxyspiro[1,4-dihydropyrano[4,3-c]pyridine-3,1′-cyclopropane]-8-yl]-3,4-dihydro-2H-isoquinolin-1-one], for which the IC50 came to 255 nM. Then `Cn1ncc2c(F)cc(-c3cncc4c3COCC4(C)O)cc21` (single isomer, unassigned) [Compound 176, 8-(4-Fluoro-1-methyl-1H-indazol-6-yl)-4-methyl-3,4-dihydro-1H-pyrano[4,3-c]pyridin-4-ol], with 13.4 nM.

`CCC(=O)NC1COCc2c(-c3cc4c(cnn4C)cc3F)cncc21` (single isomer, unassigned) [Compound 193, N-[8-(5-Fluoro-1-methyl-1H-indazol-6-yl)-3,4-dihydro-1H-pyrano[4,3-c]pyridin-4-yl]-propionamide] registered an IC50 of 38 nM. Then `CCC(=O)NC1COCc2c(-c3ccc4c(c3)C(F)(F)CCO4)cncc21` (single isomer, unassigned) [Compound 143, N-[8-(4,4-Difluoro-chroman-6-yl)-3,4-dihydro-1H-pyrano[4,3-c]pyridin-4-yl]-propionamide], with 27.9 nM; and `CCS(=O)(=O)NC1COCc2c(-c3ccc4cnn(C)c4c3)cncc21` (single isomer, unassigned) [Compound 83, Ethanesulfonic acid [8-(1-methyl-1H-indazol-6-yl)-3,4-dihydro-1H-pyrano[4,3-c]pyridin-4-yl]-amide], with 31.3 nM; and `OC1COCc2c(-c3ccc4nncn4c3)cncc21` (single isomer, unassigned) [Compound 98, 8-[1,2,4]Triazolo[4,3-a]pyridin-6-yl-3,4-dihydro-1H-pyrano[4,3-c]pyridin-4-ol], with 1300 nM. Then `CCS(=O)(=O)NC1COCc2c(-c3cc4c(cnn4C)cc3C)cncc21` (single isomer, unassigned) [Compound 79, Ethanesulfonic acid [8-(1,5-dimethyl-1H-indazol-6-yl)-3,4-dihydro-1H-pyrano[4,3-c]pyridin-4-yl]-amide], with 653 nM; and `Cc1nn(C)c(C)c1-c1cncc2c1COCC2O` (single isomer, unassigned) [Compound 39, 8-(1,3,5-Trimethyl-1H-pyrazol-4-yl)-3,4-dihydro-1H-pyrano[4,3-c]pyridin-4-ol], with 437 nM. Then `CCS(=O)(=O)NC1COCc2c(-c3ccc4c(cnn4C)c3)cncc21` (single isomer, unassigned) [Compound 82, Ethanesulfonic acid [8-(1-methyl-1H-indazol-5-yl)-3,4-dihydro-1H-pyrano[4,3-c]pyridin-4-yl]-amide], with 215 nM. `Cc1c(-c2cncc3c2COCC3O)cnn1C` (single isomer, unassigned) [Compound 41, 8-(1,5-Dimethyl-1H-pyrazol-4-yl)-3,4-dihydro-1H-pyrano[4,3-c]pyridin-4-ol] had a 50% inhibitory concentration (IC50) of 1000 nM.

Molecule `O=C1CCOc2cc(-c3cncc4c3COCC4O)ccc21` (single isomer, unassigned) [Compound 122, 7-(4-Hydroxy-3,4-dihydro-1H-pyrano[4,3-c]pyridin-8-yl)-chroman-4-one] yielded an IC50 of 194 nM.

The molecule `CCC(=O)NC1COCc2c(-c3ccc4c(c3)OCCNC4=O)cncc21` (single isomer, unassigned) [Compound 147, N-[8-(5-Oxo-2,3,4,5-tetrahydro-benzo[f][1,4]oxazepin-8-yl)-3,4-dihydro-1H-pyrano[4,3-c]pyridin-4-yl]-propionamide] showed a concentration for half-maximal inhibition (IC50) of 1690 nM. Take `NC(=O)c1cccc2cc(-c3cncc4c3COCC4O)cnc12` (single isomer, unassigned) [Compound 105, 3-(4-Hydroxy-3,4-dihydro-1H-pyrano[4,3-c]pyridin-8-yl)-quinoline-8-carboxylic acid amide]: it took 51.1 nM to reach half-maximal inhibition (IC50). Then `Cn1ncc2ccc(-c3cncc4c3COC3(CC3)C4O)cc21` (single isomer, unassigned) [Compound 16, 8-(1-methylindazol-6-yl)spiro[1,4-dihydropyrano[4,3-c]pyridine-3,1′-cyclopropane]-4-ol], with 12.5 nM; and `O=c1ccc2cc(-c3cncc4c3COCC4O)ccc2o1` (single isomer, unassigned) [Compound 125, 6-(4-Hydroxy-3,4-dihydro-1H-pyrano[4,3-c]pyridin-8-yl)-chromen-2-one], with 22.8 nM. Under `Cn1ncc2c(C#N)cc(-c3cncc4c3COCC4O)cc21` (single isomer, unassigned) [Compound 106, 6-(4-Hydroxy-3,4-dihydro-1H-pyrano[4,3-c]pyridin-8-yl)-1-methyl-1H-indazole-4-carbonitrile] stands 599 nM. Regarding `Cn1nnc2ccc(-c3cncc4c3COCC4O)cc21` (single isomer, unassigned) [Compound 188, 8-(3-Methyl-3H-benzotriazol-5-yl)-3,4-dihydro-1H-pyrano[4,3-c]pyridin-4-ol], 21 nM corresponded to half-maximal inhibition (IC50).

Molecule `CC1(O)CCOc2ccc(-c3cncc4c3COCC4O)cc21` (single isomer, unassigned) [Compound 138, 8-(4-Hydroxy-4-methyl-chroman-6-yl)-3,4-dihydro-1H-pyrano[4,3-c]pyridin-4-ol] had an IC50 of 1560 nM. `O=C1CCCc2cc(-c3cncc4c3COCC4O)ccc21` (single isomer, unassigned) [Compound 117, 6-(4-Hydroxy-3,4-dihydro-1H-pyrano[4,3-c]pyridin-8-yl)-3,4-dihydro-2H-naphthalen-1-one]: half-maximal inhibition (IC50) was put at 103 nM. Turning to `Cc1n[nH]c2ccc(-c3cncc4c3COCC4O)cc12` (single isomer, unassigned) [Compound 10, 8-(3-Methyl-1H-indazol-5-yl)-3,4-dihydro-1H-pyrano[4,3-c]pyridin-4-ol], the concentration for half-maximal inhibition (IC50) is 115 nM. Then `O=C1CCc2nc(-c3cncc4c3COCC4O)ccc21` (single isomer, unassigned) [Compound 181, 2-(4-Hydroxy-3,4-dihydro-1H-pyrano[4,3-c]pyridin-8-yl)-6,7-dihydro-[1]pyrindin-5-one], with 150 nM. Then `Cn1ncc2cc(F)c(-c3cncc4c3COCC4O)cc21` (single isomer, unassigned) [Compound 18, 8-(5-Fluoro-1-methyl-1H-indazol-6-yl)-3,4-dihydro-1H-pyrano[4,3-c]pyridin-4-ol], with 20.1 nM; and `CCS(=O)(=O)NC1COCc2c(-c3ccc4c(c3)CCC4=O)cncc21` (single isomer, unassigned) [Compound 157, Ethanesulfonic acid [8-(1-oxo-indan-5-yl)-3,4-dihydro-1H-pyrano[4,3-c]pyridin-4-yl]-amide], with 46 nM. Under `Cn1ncc2c(C#N)cc(-c3cncc4c3COCC4(C)O)cc21` (single isomer, unassigned) [Compound 174, 6-(4-Hydroxy-4-methyl-3,4-dihydro-1H-pyrano[4,3-c]pyridin-8-yl)-1-methyl-1H-indazole-4-carbonitrile] stands 4400 nM; under `O=C1NCCc2cc(-c3cncc4c3COC3(CC3)C4O)ccc21` (single isomer, unassigned) [Compound 85, 6-[4-hydroxyspiro[1,4-dihydropyrano[4,3-c]pyridine-3,1′-cyclopropane]-8-yl]-3,4-dihydro-2H-isoquinolin-1-one], 90.9 nM.

As for `Cn1ncc2c1C=C(c1cncc3c1COCC3O)CC2` (single isomer, unassigned) [Compound 189, 8-(1-Methyl-4,5-dihydro-1H-indazol-6-yl)-3,4-dihydro-1H-pyrano[4,3-c]pyridin-4-ol], the half-inhibitory concentration (IC50) was found to be 67 nM. Molecule `Cc1cc2cnn(C)c2cc1-c1cncc2c1COCC2N` (single isomer, unassigned) [Compound 70, 8-(1,5-Dimethyl-1H-indazol-6-yl)-3,4-dihydro-1H-pyrano[4,3-c]pyridin-4-ylamine] showed an IC50 of 166 nM. Then `O=C1CCCc2cc(-c3cncc4c3COCC4O)ccc21` (single isomer, unassigned) [Compound 118, 6-(4-Hydroxy-3,4-dihydro-1H-pyrano[4,3-c]pyridin-8-yl)-3,4-dihydro-2H-naphthalen-1-one], with 12.5 nM. Then `CCC(=O)NC1COCc2c(-c3ccc4ocnc4c3)cncc21` (single isomer, unassigned) [Compound 56, N-(8-Benzooxazol-5-yl-3,4-dihydro-1H-pyrano[4,3-c]pyridin-4-yl)-propionamide], with 85.8 nM; and `CC(=O)NC1COCc2c(-c3ccc4cnn(C)c4c3)cncc21` (single isomer, unassigned) [Compound 74, N-[8-(1-Methyl-1H-indazol-6-yl)-3,4-dihydro-1H-pyrano[4,3-c]pyridin-4-yl]-acetamide], with 25.6 nM; and `O=C1NCCOc2cc(-c3cncc4c3COCC4O)ccc21` (single isomer, unassigned) [Compound 146, 8-(4-Hydroxy-3,4-dihydro-1H-pyrano[4,3-c]pyridin-8-yl)-3,4-dihydro-2H-benzo[f][1,4]oxazepin-5-one], with 9730 nM.

The values are drawn from patent US9890171B2, “Aldosterone synthase inhibitors” (Boehringer Ingelheim International GmbH, priority 2014, dated 2018).
